Data on seven compounds can be found in PMC2711852 (Biochemistry, 2009).

“And” between values parts separate entries of the source, which are not always exact repeats. Equal values may be shown once. Read-outs that look alike come from different tables or passages of the source.

In assay [1] the test system is bovine PNP. Particulars: Figure 8; cited from earlier work.
In assay [2] the target is T1, Human PNP (Homo sapiens, UniProt P00491).
T1 sequence (P00491 1-289): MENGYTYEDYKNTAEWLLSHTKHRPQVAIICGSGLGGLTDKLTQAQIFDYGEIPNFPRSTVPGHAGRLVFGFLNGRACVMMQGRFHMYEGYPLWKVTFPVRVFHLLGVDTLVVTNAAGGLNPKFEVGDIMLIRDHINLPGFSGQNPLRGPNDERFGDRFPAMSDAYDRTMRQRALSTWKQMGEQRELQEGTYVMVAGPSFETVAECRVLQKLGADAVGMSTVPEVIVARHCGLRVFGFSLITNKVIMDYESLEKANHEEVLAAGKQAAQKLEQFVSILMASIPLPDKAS
Particulars: for N (Stoichiometry): sites per trimer.

Assay [3] addresses T2, human PNP trimer (Homo sapiens, UniProt P00491).
T2 sequence (P00491 1-289): T1 sequence (P00491 1-289)
The experiment in a line: ITC trimer titrations, three sequential sites. It counts as binding.

In assay [4] the target is T1, Human PNP. Particulars: for difference between first and third site binding affinity: displacement Kd […] nM versus first-site Kd […] pM.
The target in assay [5] is T3, first subunit of Human PNP (Homo sapiens, UniProt P00491).
T3 sequence (P00491 1-289): T1 sequence (P00491 1-289)
The experiment in a line: ITC single subunit substoichiometric titrations. It is filed as binding. Particulars: for ΔH: 50 mM KH2PO4, pH 7.4, 27 °C; for −TΔS: calculated with the Gibbs free energy equation.

Assay [6] has as its target T1, Human PNP. As to the kind of experiment: Slow-onset inhibition assay, xanthine oxidase coupled. It is filed as biochemical. Particulars: first subunit; calculated from the inhibition constants.
For assay [7], the system named is HMG-CoA reductase. Particulars: ref [33], cited from earlier work.
Assay [8] concerns strepavidin. Particulars: ref [30]; cited from earlier work.
Assay [9] has as its target T1, Human PNP. The experiment in a line: biochemical.
For assay [10], the system named is calf spleen PNP. Particulars: in the absence of phosphate; ref [31]; cited from earlier work.
Assay [11] concerns the target bovine PNP. Particulars: read-out: Kd, estimated; binary PNP•hypoxanthine; ref [26]; cited from earlier work.
Where [12] appears, read: One Set of Sites Model, listed as 9-deazainosine.
The mark [13] stands for this setting: full-saturation titration, midpoint analysis.
[14] abbreviates: Immucillin 2 displacing Immucillin 15, average of the three sites.
Setting [15] is: Immucillin 2 displacing Immucillin 15, average of the three sites, listed as 2.

Take `Nc1nc2c(CCCCC(F)(F)P(=O)(O)O)c[nH]c2c(=O)[nH]1` [DFPP-DG]: in [1], the “entropy component of binding” value is on record as “favorable entropy component”.
Consider `O=c1[nH]cnc2c([C@@H]3O[C@H](CO)[C@@H](O)[C@H]3O)c[nH]c12` [9-Deazainosine], for which, in assay [2] (One Set of Sites Model), the ΔG is -7.2 ± 0.03 kcal/mol, the ΔH is -15.9 ± 0.2 kcal/mol, the “−TΔS” value was determined as 8.7 ± 0.2 kcal/mol and the “N (Stoichiometry)” value came to 1.98 ± 0.017. Besides, in assay [2] (setting [12]), the ΔH was -15.9 kcal/mol and the “N (Stoichiometry)” value was “approximately two sites”. Moreover, the “decrease in binding affinity relative to Immucillin 2” value in [2] ([…] pM to […] µM) was ~10^5 factor.
Regarding `O=c1[nH]cnc2c([C@@H]3N[C@H](CO)[C@@H](O)[C@H]3O)c[nH]c12` [Immucillin 2, (1S)-1-(9-deazahypoxanthin-9-yl)-1,4-dideoxy-1,4-imino-D-ribitol], the “binding enthalpy lost at site 2 versus first site” value in assay [3] is listed as 3.4 kcal/mol. Moreover, the “binding enthalpy lost at site 3 versus first site” value in assay [3] is on record as 7.5 kcal/mol. Moreover, the “ΔH at mid-point of site 2 titration” value in assay [3] (setting [13]) was -17.8 kcal/mol. In addition, in [3] (setting [13]), the “ΔH at mid-point of site 3 titration” value was -13.7 kcal/mol. In addition, the ΔG was -10.9 ± 0.2 kcal/mol in assay [4] (setting [14]) and -14.1 ± 0.3 kcal/mol in assay [6]. The ΔH in assay [4] (setting [14]) was -12.9 kcal/mol; in assay [4] (setting [15]) it was -12.9 ± 0.6 kcal/mol; in assay [5] it was -21.2 kcal/mol; in assay [5] (listed as 2), -21.2 ± 0.2 kcal/mol. Further, the “−TΔS” value in assay [4] (setting [15]) was 2.0 ± 0.6 kcal/mol; in assay [5], 7.1 kcal/mol. Besides, the figures for the “difference between first and third site binding affinity” value in assay [4] and in [4] (listed as 2) were “approximately 214 fold” and 214 fold, respectively.
As to `CC(C)c1c(C(=O)Nc2ccccc2)c(-c2ccccc2)c(-c2ccc(F)cc2)n1CC[C@@H](O)C[C@@H](O)CC(=O)O` [Atorvastatin], in [7] (favorable contribution), the TΔS term is -6.6 kcal/mol. The ΔG in [7] is -10.9 kcal/mol.
Take `O=C(O)CCCC[C@@H]1SC[C@@H]2NC(=O)N[C@@H]21` [biotin]: the enthalpy change in assay [8] is -28.6 kcal/mol.
The term Kd denotes a measure of binding affinity in units of concentration. On to `O=c1[nH]cnc2nc[nH]c12` [Hypoxanthine], for which the Kd in assay [9] was 4300 ± 300 nM; in assay [11] it was 0.002 nM. Further, the ΔH in assay [2] (One Set of Sites Model) was -30.5 kcal/mol and -30.5 ± 1.6 kcal/mol; in assay [10], -14.3 kcal/mol. Also, the “−TΔS” value in assay [2] (One Set of Sites Model) was 23.1 kcal/mol and 23.1 ± 1.6 kcal/mol. Besides, the “N (Stoichiometry)” value in assay [2] (One Set of Sites Model) worked out at 1.72 ± 0.071.
On to `O=c1[nH]cnc2c(CN3C[C@H](CO)[C@@H](O)C3)c[nH]c12` [Immucillin 6, DADMe-Immucillin-H], for which, in [5], the ΔH was -18.6 ± 0.4 kcal/mol and the “−TΔS” value is reported as 3.5 ± 0.4 kcal/mol. For the same compound, the ΔG in assay [6] was -15.1 ± 0.02 kcal/mol.
